Reference: patent US8343475B2, “Small cationic antimicrobial peptides” (priority 2006, dated 2013)
In brackets after ≈: the same amount, converted by molar mass. Residues, ends and D or L forms follow the SMILES beside them. No end group written: not given here.

Legend:
Assay type in all cases: cell-based
[1] = tested on: Pseudomonas aeruginosa strain H1001 fliC::luxCDABE; test: Luminescence (lux) killing assay, peptides cleaved from cellulose support; parameters: key: − for minimal or no activity; + for weak activity; +/++ for intermediate activity; ++ strong activity; details: P. aeruginosa strain H1001, 4 hours incubation, luminescence as indicator
Protocol: Assay for the cleaved peptides from cellulose support. The peptides were cleaved from the dried membrane in an ammonia atmosphere overnight, resulting in free peptides with an amidated C-terminus. The free peptides contained two β-alanines at the C-terminus, in addition to being amidated due to the linker between the cellulose membrane and the peptide sequence. The peptide spots were punched out and transferred in a 96-well microtiter plate. Serial dilutions were carried out from the membrane spots. Four rows were filled with four controls including 2×Bac2A and 2× an unrelated peptide. The other eight rows were used for serial dilution steps of the peptide variants. An overnight culture of Pseudomonas aeruginosa strain H1001 was diluted 1:500 using either LB media or 100 mM Tris buffer pH 7.3, 20 mM glucose and was added to the wells (100 μl/well) containing the peptide spots. In all other wells 50 μl were added. The microtiter plate was incubated for 30 min at 37° C. to release the peptides from the membrane. Subsequently, a dilution series were performed and the plate was incubated at 37° C. The luminescence produced by the FMN dependent luciferase system were detected in a time dependent manner using a Tecan Spectra Fluor plus.
(§1) Strains. For the killing assay a mini-Tn5-lux mutant in Pseudomonas aeruginosa H103 was used. The strain is called H1001 and contains a fliC::luxCDABE transcriptional fusion resulting in constitutive expression of luciferase. The bacterial strains used for the antimicrobial activity assays included Escherichia coli UB1005 (F-, nalA37, metB1), a wild-type Salmonella enterica ssp. typhimurium (S. typhimurium), wild-type Pseudomonas aeruginosa PAO1 strain H103, Enterococcus faecalis ATCC29212, Staphylococcus aureus ATCC25923, and a clinical isolate of Staphylococcus epidermidis obtained from Dr. D. Speert (Department of Medicine, University of British Columbia). Antifungal activity was tested using a lab isolate of Candida albicans obtained from Dr. B. Dill (Department of Microbiology and Immunology, University of British Columbia).
Peptide synthesis on cellulose is a very effective and inexpensive way to investigate many different peptide variants for one particular activity. However, one of the problems of this technique is the low peptide amount synthesized on the membrane, about 280 nmol per cm^2. An average peptide spot used for the experiments presented is about 0.3 cm^2. Therefore, an assay had to be developed that was sensitive enough to show activity with this amount of peptides. P. aeruginosa H1001 has a luciferase gene cassette incorporated into the bacterial chromosome in a gene fliC (involved in flagellar biosynthesis) that is constitutively expressed. It will thus produce light if FMN is present. When this strain is killed, e.g. by peptides, the amount of light produced will decrease due to a decrease in FMN levels in the killed cells. This action can thus be monitored by detecting luminescence in a microtiter plate luminescence reader over time. The volume and amount of cells per well were optimized for this assay. After screening, we were able to monitor the killing action with small amounts of the parent peptide Bac2A (2 μg/ml of free peptide).

[2] = tested on: Pseudomonas aeruginosa PAO1 strain H103; details: for MIC: PAO1; for antimicrobial activity against P. aeruginosa PAO1 (in words): laboratory strain P. aeruginosa PAO1
Protocol: The biological activity of the peptides can be determined by standard methods known to those of skill in the art, such as “minimal inhibitory concentration (MIC)” assay described in the present examples, whereby the lowest concentration at which no change in OD is observed for a given period of time is recorded as MIC.
Minimal inhibitory concentration (MIC) determination. The MIC of the peptides were measured using a modified broth microdilution method in Mueller Hinton (MH) medium (Wu M, Hancock R E W. 1999. Interaction of the cyclic antimicrobial cationic peptide bactenecin with the outer and cytoplasmic membrane. J Biol Chem 274, 29-35). Briefly, the peptides were dissolved and stored in glass vials. The assay was performed in sterile 96-well polypropylene microtitre plates were used. Serial dilutions of the peptides to be assayed were performed in 0.01% acetic acid (Fisher) containing 0.2% bovine serum albumin (Boehringer Mannheim GmbH) at 10× the desired final concentration. Ten microlitres of the 10× peptides were added to each well of a 96-well polypropylene plate containing 90 μl of MH media per well. Bacteria were added to the plate from an overnight culture at 2-7×10^5 colony forming units/ml and incubated over night at 37° C. The MIC was taken as the concentration at which no growth was observed.
as §1

[3] = tested on: MCP-3 release by human PBMC; test: Chemokine induction in PBMC (capture ELISA); details: background (6) subtracted
Protocol: FIG. 16. Induction of MCP3 release by 7.5×10^5 human PBMC in response to treatment with 20 or 100 μg/ml of different peptides for 24 hours.
(§2) Venous blood (20 ml) from healthy volunteers was collected in Vacutainer® collection tubes containing sodium heparin as an anticoagulant (Becton Dickinson, Mississauga, ON) in accordance with UBC ethical approval and guidelines. Blood was diluted 1:1 with complete RPMI 1640 medium and separated by centrifugation over a Ficoll-Paque® Plus (Amersham Biosciences, Piscataway, N.J., USA) density gradient. White blood cells were isolated from the buffy coat, washed twice in RPMI 1640 complete medium, and the number of peripheral blood mononuclear cells (PBMC) was determined by trypan blue exclusion. PBMC (5×10^5) were seeded into 12-well tissue culture dishes (Falcon; Becton Dickinson) at 0.75 to 1×10^6 cells/ml at 37° C. in 5% CO2. The above conditions were chosen to mimic conditions for circulating blood monocytes entering tissues at the site of infection via extravasation.
(§3) Following incubation of the cells under various treatment regimens, the tissue culture supernatants were centrifuged at 1000×g for 5 min, then at 10,000×g for 2 min to obtain cell-free samples. Supernatants were aliquoted and then stored at −20° C. prior to assay for various chemokines by capture ELISA (eBioscience and BioSource International Inc., CA, USA respectively)

[4] = tested on: MCP-1 release by human PBMC; test: Chemokine induction in PBMC (capture ELISA); details: background (204) subtracted
Protocol: FIG. 15. Induction of MCP-1 release by 7.5×10^5 human PBMC in response to treatment with 20 or 100 μg/ml of different peptides for 24 hours.
as §2, §3

[5] = tested on: CXCL1 (Gro-α) release by human PBMC; test: Chemokine induction in PBMC (capture ELISA); details: background (196) subtracted
Protocol: FIG. 17. Induction of CXCL1 (Gro-α) release by 7.5×10^5 human PBMC in response to treatment with 20 or 100 μg/ml of different peptides for 24 hours.
as §2, §3

KFKFFKYRK [HH991]
Antimicrobial activity [1]: +

CC(C)C[C@H](NC(=O)CNC(=O)[C@H](CCCCN)NC(=O)[C@H](CC(N)=O)NC(=O)[C@H](CCCNC(=N)N)NC(=O)[C@@H](N)CCC(N)=O)C(=O)N[C@@H](CCCNC(=N)N)C(=O)N[C@@H](Cc1c[nH]cn1)C(=O)N[C@@H](Cc1c[nH]cn1)C(N)=O [HHC186, QRNKGLRHH] (H-QRNKGLRHH-NH2; N-terminus assumed)
MIC [2]: 381 µM (≈ 436 µg/mL)
antimicrobial activity against P. aeruginosa PAO1 (in words) [2]: did not posses any antimicrobial activity

RWWKWRK [HH1003]
Antimicrobial activity [1]: +/++

PWWPKRR [HH1000]
Antimicrobial activity [1]: −

KFHWWKWRK [HH989]
Antimicrobial activity [1]: ++

RFWKWRR [HH1004]
Antimicrobial activity [1]: +

RWWIYRR [HH1006]
Antimicrobial activity [1]: +

RWWIKRR [HH1005]
Antimicrobial activity [1]: +/++

CSCC[C@H](NC(=O)CNC(=O)[C@H](Cc1c[nH]c2ccccc12)NC(=O)[C@H](CCCNC(=N)N)NC(=O)[C@H](CCCNC(=N)N)NC(=O)CN)C(=O)NCC(=O)N[C@H](C(=O)N[C@@H](CCCNC(=N)N)C(N)=O)C(C)C [HHC183, GRRWGMGVR] (H-GRRWGMGVR-NH2; N-terminus assumed)
MIC [2]: 360 µM (≈ 386 µg/mL)
antimicrobial activity against P. aeruginosa PAO1 (in words) [2]: did not posses any antimicrobial activity

CC(C)[C@H](NC(=O)CNC(=O)[C@@H](NC(=O)[C@H](CCCNC(=N)N)NC(=O)[C@H](CCCCN)NC(=O)[C@H](CO)NC(=O)[C@H](C)N)C(C)C)C(=O)N[C@@H](CCCNC(=N)N)C(=O)N[C@@H](CC(N)=O)C(N)=O [HHC190, ASKRVGVRN] (H-ASKRVGVRN-NH2; N-terminus assumed)
MIC [2]: 413 µM (≈ 407 µg/mL)
antimicrobial activity against P. aeruginosa PAO1 (in words) [2]: did not posses any antimicrobial activity

PKWPWRR [HH997]
Antimicrobial activity [1]: −

1024 (RIRVIVLKK) [compound 1024]
Chemokine induction MCP-3 ([3]; 20 μg/ml peptide): 1 pg/mL
Chemokine induction MCP-3 ([3]; 100 μg/ml peptide): 0 pg/mL
Chemokine induction MCP-1 ([4]; 20 μg/ml peptide): 285 pg/mL
Chemokine induction MCP-1 ([4]; 100 μg/ml peptide): 81 pg/mL
Chemokine induction Gro-α ([5]; 20 μg/ml peptide): 20 pg/mL
Chemokine induction Gro-α ([5]; 100 μg/ml peptide): -21 pg/mL

RWWKWRR [HH1002]
Antimicrobial activity [1]: ++

KWPKWPWRR [HH979]
Antimicrobial activity [1]: +

KWRWWKKRR [HH986]
Antimicrobial activity [1]: ++

WRWRVRVWR (WRWRVRVWR-NH2) [compound 1031]
Chemokine induction MCP-3 ([3]; 20 μg/ml peptide): 9 pg/mL
Chemokine induction MCP-3 ([3]; 100 μg/ml peptide): 9 pg/mL
Chemokine induction MCP-1 ([4]; 20 μg/ml peptide): 875 pg/mL
Chemokine induction MCP-1 ([4]; 100 μg/ml peptide): 552 pg/mL
Chemokine induction Gro-α ([5]; 20 μg/ml peptide): 172 pg/mL
Chemokine induction Gro-α ([5]; 100 μg/ml peptide): 112 pg/mL

KWPWWKWRR [HH981]
Antimicrobial activity [1]: ++

KWPWWPWRR [HH983]
Antimicrobial activity [1]: +/++

1015 (VLIRWNGKK) [compound 1015]
Chemokine induction MCP-3 ([3]; 20 μg/ml peptide): 0 pg/mL
Chemokine induction MCP-3 ([3]; 100 μg/ml peptide): 10 pg/mL
Chemokine induction MCP-1 ([4]; 20 μg/ml peptide): 113 pg/mL
Chemokine induction MCP-1 ([4]; 100 μg/ml peptide): 644 pg/mL
Chemokine induction Gro-α ([5]; 20 μg/ml peptide): 42 pg/mL
Chemokine induction Gro-α ([5]; 100 μg/ml peptide): 178 pg/mL

KWPWKPWRR [HH980]
Antimicrobial activity [1]: +

1045 (RWWRIVI) [compound 1045]
Chemokine induction MCP-3 ([3]; 20 μg/ml peptide): 0 pg/mL
Chemokine induction MCP-3 ([3]; 100 μg/ml peptide): 31 pg/mL
Chemokine induction MCP-1 ([4]; 20 μg/ml peptide): -2 pg/mL
Chemokine induction MCP-1 ([4]; 100 μg/ml peptide): 989 pg/mL
Chemokine induction Gro-α ([5]; 20 μg/ml peptide): 13 pg/mL
Chemokine induction Gro-α ([5]; 100 μg/ml peptide): 435 pg/mL

PWWKWRR [HH995]
Antimicrobial activity [1]: +/++

1025 (RRIVKKFQIVRR) [compound 1025]
Chemokine induction MCP-3 ([3]; 20 μg/ml peptide): 1 pg/mL
Chemokine induction MCP-3 ([3]; 100 μg/ml peptide): 3 pg/mL
Chemokine induction MCP-1 ([4]; 20 μg/ml peptide): 109 pg/mL
Chemokine induction MCP-1 ([4]; 100 μg/ml peptide): 284 pg/mL
Chemokine induction Gro-α ([5]; 20 μg/ml peptide): -3 pg/mL
Chemokine induction Gro-α ([5]; 100 μg/ml peptide): 32 pg/mL
